Laboratory results: patent EP2045247B1, “Compounds for the inhibition of histone deacetylase” (NatureWise Biotech & Medicals Corporation, priority 2007, dated 2009)

Experiments:
p21 = assay: RT-PCR of p21 mRNA in MCF-7 cells; type: cell-based, human; conditions: different doses, 24 hours (Fig. 10)
Method: The cell cycle related to p21 mRNA expression was examined by RT-PCR. The total RNAs were isolated from the treated MCF-7 cells and used in the RT reaction. cDNA (1µl) was used as a template to amplify p21 gene by PCR. GAPDH was used as an internal control. […] In this experiment, MCF-7 cells were treated with different doses of NBM-HD-1 for 24 hours.

MCF-7 cancer cells = assay: Cell cycle analysis of MCF-7 cells by FACScan cytometry; type: cell-based, human; conditions: 0, 2.5, 5 and 10µg/mL, 72 hours (Fig. 9)
Method: 1×10^6 of rat C6 glioma cells were treated with various concentrations of NBM-HD-1 (0 µg/mL, 2.5 µg/mL, 5 µg/mL, and 10 µg/mL) for 72 hours. The treated cells were trysinized and collected. The cells were resuspended in 200 µL PBS and then fixed by adding 800 µL of cold 100% ethanol. The resulting cells were fixed overnight at -20[…]. The cell pellets were collected by centrifugation, resuspended in 1 mL of hypotonic buffer (0.5% Triton X-100 in PBS and 1 µg/mL RNase A), and incubated at 37 °C for 30 minutes. Then, 1 mL of PI solution (50 µg/mL) was added to the resulting cell pellets. The mixture was allowed to stand at 4[…] for 30 min. The DNA amounts of the cells were analyzed by FACScan Cytometry (Becton Dickinson) (see Fig. 2).
MCF-7 cancer cells (1×10^6) in a 100-mm dish were treated with various concentrations of NBM-HD-1 (0, 2.5, 5, and 10µg/mL) or 4mM sodium butyrate for 72 hours. The samples were prepared following the steps mentioned in [0063]. The DNA of the cells was then analyzed by FACScan cytometry (Becton Dickinson). […] The percentage of G0/G1 phase increased from 74.46 to 92.55 in a dose-dependent manner.

## COc1cc2c(c(OC)c1CCC(C)(C)O)C(=O)C[C@@H](c1ccc(OC)c(OC)c1C/C=C(\C)CCCC(C)(C)O)O2 [NBM-HD-1]
p21
  p21 mRNA expression: induced the expression of p21 in a dose-dependent manner
MCF-7 cancer cells
  S and G2/M phases of the cells: significantly decreased both S and G2/M phases of the cells in a dose-dependent manner
